Source: ChEMBL document CHEMBL3865836, “Biosynthesis-Inspired Total Synthesis of Bioactive Styryllactones (+)-Goniodiol, (6S,7S,8S)-Goniodiol, (-)-Parvistone D, and (+)-Parvistone E” (J Nat Prod, 2016)

Tests used:
[1] = Cytotoxicity against human Bcap32 cells by trypan blue dye exclusion method; assay type: functional, cell-based
[2] = Cytotoxicity against human Bel7470 cells by trypan blue dye exclusion method; assay type: functional, cell-based
[3] = Cytotoxicity against human HeLa cells by trypan blue dye exclusion method; assay type: functional, cell-based
[4] = Cytotoxicity against mouse P388 cells; assay type: functional, cell-based
[5] = Cytotoxicity against human A549 cells; assay type: functional; conditions: read-out: ED50 (the source's name)

Row | SMILES | IC50 [1] [µM] | IC50 [2] [µM] | IC50 [3] [µM] | IC50 [4] [µM] | EC50 [5] [µM]
1 | O=C1C=CC[C@H]([C@@H](O)[C@H](O)c2ccccc2)O1 | 54.7 | 4.1 | 12.8 | – | –
2 | O=C1C=CC[C@H]([C@H](O)[C@H](O)c2ccccc2)O1 [GONIODIOL] | – | – | – | 19.5 | 0.51
